Source: patent US9663528B2, “Substituted 1,2,3,4,6,8,12,12a-octahydro-1,4-methanodipyrido[1,2-a:1',2'-d]pyrazines and methods for treating viral infections” (priority 2012, dated 2017)
Where two headings read alike, the source gives them in different places.

Experiments:
in vitro = conditions: human
Procedure: For the antiviral assay utilizing MT4 cells, 0.4 μL of […] test concentration of 3-fold serially diluted compound in DMSO was added to 40 μL of cell growth medium (RPMI 1640, 10% FBS, 1% penicilline/Streptomycine, 1% L-Glutamine, 1% HEPES) in each well of 384-well assay plates (10 concentrations) in quidruplicate.
1 mL aliquots of 2×10^6 MT4 cells are pre-infected for 1 and 3 hours respectively at 37° C. with 25 μL (MT4) or of either cell growth medium (mock-infected) or a fresh 1:250 dilution of an HIV-IIIb concentrated ABI stock (0.004 m.o.i. for MT4 cells). Infected and uninfected cells are diluted in cell growth medium and 35 μL of 2000 (for MT4) cells is added to each well of the assay plates.
Assay plates were then incubated in a 37° C. incubator. After 5 days of incubation, 25 μL of 2× concentrated CellTiter-Glo™ Reagent (catalog #G7573, Promega Biosciences, Inc., Madison, Wis.) was added to each well of the assay plate. Cell lysis was carried out by incubating at room temperature for 2-3 minutes, and then chemiluminescence was read using the Envision reader (PerkinElmer).

PXR = PXR (Homo sapiens (Human), UniProt O75469); assay: Human PXR activation assay (luciferase reporter gene assay, DPX2 cells); format: cell-based; conditions: human
Procedure: A stably transformed tumor cell line (DPX2) was plated on 96-well microtiter plates. DPX2 cells harbor the human PXR gene (NR112) and a luciferase reporter gene linked to two promoters identified in the human CYP3A4 gene, namely XREM and PXRE. […] The number of viable cells was determined and the reporter gene activity was assessed. Positive control: […]

Chain of PXR (O75469 whole entry): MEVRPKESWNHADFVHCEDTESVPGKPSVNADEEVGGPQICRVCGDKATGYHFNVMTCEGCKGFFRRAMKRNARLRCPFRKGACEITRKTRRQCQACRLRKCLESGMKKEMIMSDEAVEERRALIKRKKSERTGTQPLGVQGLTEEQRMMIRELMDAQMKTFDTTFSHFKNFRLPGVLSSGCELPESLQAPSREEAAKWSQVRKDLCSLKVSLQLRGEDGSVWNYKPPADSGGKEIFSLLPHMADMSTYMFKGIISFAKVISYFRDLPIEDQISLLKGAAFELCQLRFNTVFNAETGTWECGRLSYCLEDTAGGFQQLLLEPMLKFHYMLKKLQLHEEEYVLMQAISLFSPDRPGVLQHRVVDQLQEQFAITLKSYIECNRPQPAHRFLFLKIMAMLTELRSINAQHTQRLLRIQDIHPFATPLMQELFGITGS

Structure (SMILES) | CC50 at 5 days (in vitro; CC50 nM in MT-4) [nM] | Emax at 24 h, 15 µM (PXR) [%] | CC50 at 5 days (in vitro; MT-4 cells, mock-infected, CC50 nM in MT-4, MT-4 cells, 5 days incubation) [nM] | Emax at 24 h, 15 µM (PXR; 15 μM, relative to maximum fold induction by 10 or 20 μM rifampicin, DPX2 cells, 24 hours, read-out: % Emax at 15 μM) [%]
O=C(NC1(c2ccc(F)cc2F)CC1)c1cn2c(c(O)c1=O)C(=O)N1C(C2)O[C@@H]2CCC[C@H]1C2 (stereo partly drawn) [Compound 29, (2R,6S)-N-(1-(2,4-difluorophenyl)cyclopropyl)-9-hydroxy-8,10-dioxo-3,4,5,6,8,10,14,14a-octahydro-2H-2,6-methanopyrido[1′,2′:4,5]pyrazino[2,1-b][1,3]oxazocine-11-carboxamide] | 9450 | 3 |  | 
O=C(NC1(c2ccc(F)cc2F)CCC1)c1cn2c(c(O)c1=O)C(=O)N1C(C2)O[C@H]2CC[C@@H]1C2 (stereo partly drawn) [Compound 32, (2S,5R)-N-(1-(2,4-difluorophenyl)cyclobutyl)-8-hydroxy-7,9-dioxo-2,3,4,5,7,9,13,13a-octahydro-2,5-methanopyrido[1′,2′:4,5]pyrazino[2,1-b][1,3]oxazepine-10-carboxamide] | 4680 | 14 |  | 
O=C(NC1(c2ccc(F)cc2F)CCCC1)c1cn2c(c(O)c1=O)C(=O)N1C(C2)O[C@H]2CC[C@@H]1C2 (stereo partly drawn) [Compound 33, (2S,5R)-N-(1-(2,4-difluorophenyl)cyclopentyl)-8-hydroxy-7,9-dioxo-2,3,4,5,7,9,13,13a-octahydro-2,5-methanopyrido[1′,2′:4,5]pyrazino[2,1-b][1,3]oxazepine-10-carboxamide] | 3970 | 17 |  | 
C[C@H]1CO[C@@H]2Cn3cc(C(=O)NC4(c5ccc(F)cc5F)CC4)c(=O)c(O)c3C(=O)N12 [Compound 37, (3S,11aR)-N-(1-(2,4-difluorophenyl)cyclopropyl)-6-hydroxy-3-methyl-5,7-dioxo-2,3,5,7,11,11a-hexahydrooxazolo[3,2-a]pyrido[1,2-d]pyrazine-8-carboxamide] |  |  | 19500 | 2
C[C@@H](NC(=O)c1cn2c(c(O)c1=O)C(=O)N1[C@H]3CC[C@H](C3)[C@@H]1C2)c1ccc(F)cc1F [Compound 43, (12aR)-N—((R)-1-(2,4-difluorophenyl)ethyl)-7-hydroxy-6,8-dioxo-1,2,3,4,6,8,12,12a-octahydro-1,4-methanodipyrido[1,2-a:1′,2′-d]pyrazine-9-carboxamide] | 10300 | 18 |  | 
O=C(NCc1ccc(F)c(F)c1F)c1cn2c(c(O)c1=O)C(=O)N1[C@@H]3CC[C@@H](C3)O[C@H]1C2 [Compound 44, (13aS)-8-hydroxy-7,9-dioxo-N-(2,3,4-trifluorobenzyl)-2,3,4,5,7,9,13,13a-octahydro-2,5-methanopyrido[1′,2′:4,5]pyrazino[2,1-b][1,3]oxazepine-10-carboxamide] | 9870 | 4 |  | 
O=C(NCc1c(F)cccc1F)c1cn2c(c(O)c1=O)C(=O)N1[C@@H]3CC[C@@H](C3)O[C@H]1C2 [Compound 46, (13aS)-N-(2,6-difluorobenzyl)-8-hydroxy-7,9-dioxo-2,3,4,5,7,9,13,13a-octahydro-2,5-methanopyrido[1′,2′:4,5]pyrazino[2,1-b][1,3]oxazepine-10-carboxamide] | 19300 | 34 |  | 
O=C(N[C@@H](c1ccc(F)cc1F)C(F)(F)F)c1cn2c(c(O)c1=O)C(=O)N1C(C2)O[C@@H]2CC[C@H]1C2 (stereo partly drawn) [Compound 54, (2R,5S)-N—((S)-1-(2,4-difluorophenyl)-2,2,2-trifluoroethyl)-8-hydroxy-7,9-dioxo-2,3,4,5,7,9,13,13a-octahydro-2,5-methanopyrido[1′,2′:4,5]pyrazino[2,1-b][1,3]oxazepine-10-carboxamide] | 3240 | 2 |  | 
O=C(NCc1c(F)cc(F)cc1F)c1cn2c(c(O)c1=O)C(=O)N1[C@@H]3C[C@H]([C@@H]1C2)C(F)(F)C3 [Compound 57, (1R,4R,12aR)-2,2-difluoro-7-hydroxy-6,8-dioxo-N-(2,4,6-trifluorobenzyl)-1,2,3,4,6,8,12,12a-octahydro-1,4-methanodipyrido[1,2-a:1′,2′-d]pyrazine-9-carboxamide] | 11800 | 3 |  | 
O=C(NCc1ccc(F)c(Cl)c1F)c1cn2c(c(O)c1=O)C(=O)N1[C@@H]3C[C@H]([C@@H]1C2)C(F)(F)C3 [Compound 58, (1R,4R,12aR)-N-(3-chloro-2,4-difluorobenzyl)-2,2-difluoro-7-hydroxy-6,8-dioxo-1,2,3,4,6,8,12,12a-octahydro-1,4-methanodipyrido[1,2-a:1′,2′-d]pyrazine-9-carboxamide] | 7690 | 1 |  | 
O=C(NCc1c(F)cc(F)cc1F)c1cn2c(c(O)c1=O)C(=O)N1[C@@H]3C[C@@H]([C@H](F)C3)[C@@H]1C2 [Compound 59, (1R,2R,4R,12aR)-2-fluoro-7-hydroxy-6,8-dioxo-N-(2,4,6-trifluorobenzyl)-1,2,3,4,6,8,12,12a-octahydro-1,4-methanodipyrido[1,2-a:1′,2′-d]pyrazine-9-carboxamide] | 22200 | 4 |  | 
O=C(NCc1cccc(Cl)c1Cl)c1cn2c(c(O)c1=O)C(=O)N1[C@H]3CC[C@H](C3)[C@@H]1C2 [Compound 60, (1R,4S,12aR)-N-(2,3-dichlorobenzyl)-7-hydroxy-6,8-dioxo-1,2,3,4,6,8,12,12a-octahydro-1,4-methanodipyrido[1,2-a:1′,2′-d]pyrazine-9-carboxamide] | 3310 | 3 |  | 
O=C(NCc1ccc(F)c(Cl)c1F)c1cn2c(c(O)c1=O)C(=O)N1[C@H]3CC[C@H](C3)[C@H]1C2 [Compound 61, (1R,4S,12aS)-N-(3-chloro-2,4-difluorobenzyl)-7-hydroxy-6,8-dioxo-1,2,3,4,6,8,12,12a-octahydro-1,4-methanodipyrido[1,2-a:1′,2′-d]pyrazine-9-carboxamide] | 25900 | 1 |  | 
O=C(NCc1ccc(F)c(F)c1)c1cn2c(c(O)c1=O)C(=O)N1[C@H]3CC[C@H](C3)[C@@H]1C2 [Compound 66, (1R,4S,12aR)-N-(3,4-difluorobenzyl)-7-hydroxy-6,8-dioxo-1,2,3,4,6,8,12,12a-octahydro-1,4-methanodipyrido[1,2-a:1′,2′-d]pyrazine-9-carboxamide] | 11800 | 0 |  | 
O=C(NCc1ccc(F)cc1C(F)(F)F)c1cn2c(c(O)c1=O)C(=O)N1[C@H]3CC[C@H](C3)[C@@H]1C2 [Compound 67, (1R,4S,12aR)-N-(4-fluoro-2-(trifluoromethyl)benzyl)-7-hydroxy-6,8-dioxo-1,2,3,4,6,8,12,12a-octahydro-1,4-methanodipyrido[1,2-a:1′,2′-d]pyrazine-9-carboxamide] | 2980 | 0 |  | 
O=C(NCc1ccc(F)cc1Cl)c1cn2c(c(O)c1=O)C(=O)N1[C@H]3CC[C@H](C3)[C@@H]1C2 [Compound 68, (1R,4S,12aR)-N-(2-chloro-4-fluorobenzyl)-7-hydroxy-6,8-dioxo-1,2,3,4,6,8,12,12a-octahydro-1,4-methanodipyrido[1,2-a:1′,2′-d]pyrazine-9-carboxamide] | 4180 | 6 |  | 
O=C(NCc1ccc(F)c(Cl)c1F)c1cn2c(c(O)c1=O)C(=O)N1[C@H]3CC[C@H](C3)[C@@H]1C2 [Compound 69, (1R,4S,12aR)-N-(3-chloro-2,4-difluorobenzyl)-7-hydroxy-6,8-dioxo-1,2,3,4,6,8,12,12a-octahydro-1,4-methanodipyrido[1,2-a:1′,2′-d]pyrazine-9-carboxamide] | 4770 | 5 |  | 
Cc1cccc(CNC(=O)c2cn3c(c(O)c2=O)C(=O)N2[C@H]4CC[C@H](C4)[C@@H]2C3)c1F [Compound 70, (1R,4S,12aR)-N-(2-fluoro-3-methylbenzyl)-7-hydroxy-6,8-dioxo-1,2,3,4,6,8,12,12a-octahydro-1,4-methanodipyrido[1,2-a:1′,2′-d]pyrazine-9-carboxamide] | 8410 | 10 |  | 
O=C(NCc1c(Cl)ccc(Cl)c1F)c1cn2c(c(O)c1=O)C(=O)N1[C@H]3CC[C@H](C3)[C@@H]1C2 [Compound 71, (1R,4S,12aR)-N-(3,6-dichloro-2-fluorobenzyl)-7-hydroxy-6,8-dioxo-1,2,3,4,6,8, 12,12a-octahydro-1,4-methanodipyrido[1,2-a:1′,2′-d]pyrazine-9-carboxamide] | 4660 | 3 |  | 
O=C(NCc1cccc(Cl)c1)c1cn2c(c(O)c1=O)C(=O)N1[C@H]3CC[C@H](C3)[C@@H]1C2 [Compound 72, (1R,4S,12aR)-N-(3-chlorobenzyl)-7-hydroxy-6,8-dioxo-1,2,3,4,6,8,12,12a-octahydro-1,4-methanodipyrido[1,2-a:1′,2′-d]pyrazine-9-carboxamide] | 6260 | 4 |  | 
O=C(NCc1c(F)ccc(Cl)c1F)c1cn2c(c(O)c1=O)C(=O)N1[C@H]3CC[C@H](C3)[C@@H]1C2 [Compound 73, (1R,4S,12aR)-N-(3-chloro-2,6-difluorobenzyl)-7-hydroxy-6,8-dioxo-1,2,3,4,6,8,12,12a-octahydro-1,4-methanodipyrido[1,2-a:1′,2′-d]pyrazine-9-carboxamide] | 9190 | 7 |  | 
